One experiment concerns the target T1, Jarid1B (Homo sapiens, UniProt Q9UGL1).
T1 construct: purchased BPS Bioscience or custom made by MolecularThroughput 50121
T1 sequence (Q9UGL1 2-751): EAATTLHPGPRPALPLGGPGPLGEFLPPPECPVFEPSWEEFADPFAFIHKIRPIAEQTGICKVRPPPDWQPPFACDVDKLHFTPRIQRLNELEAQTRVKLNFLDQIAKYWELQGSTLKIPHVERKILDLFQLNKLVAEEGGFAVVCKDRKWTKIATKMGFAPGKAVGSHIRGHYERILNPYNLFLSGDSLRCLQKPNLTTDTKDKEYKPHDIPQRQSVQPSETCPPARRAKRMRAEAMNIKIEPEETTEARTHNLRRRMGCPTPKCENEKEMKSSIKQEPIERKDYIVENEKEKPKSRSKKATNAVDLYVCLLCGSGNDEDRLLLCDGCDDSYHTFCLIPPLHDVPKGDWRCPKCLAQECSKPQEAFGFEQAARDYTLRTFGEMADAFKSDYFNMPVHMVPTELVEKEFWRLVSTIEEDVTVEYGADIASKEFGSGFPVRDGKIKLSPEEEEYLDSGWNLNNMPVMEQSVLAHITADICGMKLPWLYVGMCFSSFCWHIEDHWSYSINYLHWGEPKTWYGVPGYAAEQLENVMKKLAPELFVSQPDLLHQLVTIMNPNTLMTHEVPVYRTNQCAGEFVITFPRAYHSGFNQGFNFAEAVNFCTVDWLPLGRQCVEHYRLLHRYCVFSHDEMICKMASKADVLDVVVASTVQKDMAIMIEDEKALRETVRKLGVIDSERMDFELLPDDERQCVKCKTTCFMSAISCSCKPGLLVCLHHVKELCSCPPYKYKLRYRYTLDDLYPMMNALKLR
Put plainly: Jarid1B in vitro enzyme inhibition assay (TR-FRET). The experiment is classed as biochemical. Summed up: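 TR-FRET read-out of demethylated product (Eu-anti-H3K4me1-2, streptavidin-APC) after EDTA quench; ratio 665/615 fitted to IC50. Reaction: 30 min at RT, 0.8 nM baculovirus Jarid1B residues 2-751, 2 μM α-ketoglutarate, 300 nM H3K4me3-biotin peptide, pH 7.3 buffer with Fe(II) and ascorbate.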
Background: In TR-FRET formats the signal depends on donor and acceptor labels being close together.

In another experiment the target is T2, JMJD2C (Homo sapiens, UniProt Q9H3R0).
T2 construct: purchased BPS Bioscience 50105
T2 sequence (Q9H3R0 2-372): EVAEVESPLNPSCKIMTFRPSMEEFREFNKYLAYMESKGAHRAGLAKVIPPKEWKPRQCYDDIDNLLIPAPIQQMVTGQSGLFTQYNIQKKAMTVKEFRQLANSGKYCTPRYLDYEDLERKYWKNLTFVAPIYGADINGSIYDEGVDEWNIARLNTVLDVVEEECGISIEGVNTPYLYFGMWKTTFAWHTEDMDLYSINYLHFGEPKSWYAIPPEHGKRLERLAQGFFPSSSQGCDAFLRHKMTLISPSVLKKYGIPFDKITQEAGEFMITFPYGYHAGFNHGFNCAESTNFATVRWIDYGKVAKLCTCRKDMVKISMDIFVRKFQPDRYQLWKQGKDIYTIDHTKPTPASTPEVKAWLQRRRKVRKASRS
Briefly: JMJD2C in vitro enzyme inhibition assay (TR-FRET). The experiment is classed as biochemical. The essentials:
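IC50 came from 665/615 TR-FRET ratios (Eu-anti-H3K9me2 antibody, streptavidin-APC, EDTA quench) over 11-point inhibitor series. Reactions ran 30 min at room temperature: 0.3 nM JMJD2C (AA 2-372, baculovirus), 300 nM biotinylated H3K9me3 peptide, 2 μM alpha-ketoglutarate, 2 μM Fe(II), ascorbate, pH 7.3.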

Molecules are shown by their SMILES.

As a reminder, the IC50 is the point on the concentration scale where inhibition reaches its midpoint. The low end stands for higher potency, the high end for lower potency.

As to `CC(=O)N1CCC[C@H](n2cc(Oc3nc(O)c4ccncc4n3)cn2)C1` [Example 164, 1-[(3S)-3-[4-({4-hydroxypyrido[3,4-d]pyrimidin-2-yl}oxy)-1H-pyrazol-1-yl]piperidin-1-yl]ethan-1-one], the IC50 on Jarid1B and against JMJD2C was not above 0.1 µM each time.
For the molecule `N#CCC(=O)N1CCC[C@H](n2cc(Oc3nc(O)c4ccncc4n3)cn2)C1` [Example 166, 3-[(3S)-3-[4-({4-hydroxypyrido[3,4-d]pyrimidin-2-yl}oxy)-1H-pyrazol-1-yl]piperidin-1-yl]-3-oxopropanenitrile], the IC50 against Jarid1B and against JMJD2C was not above 0.1 µM throughout.
As for `CC(=O)N1CC[C@@H](n2cc(Oc3nc(O)c4ccncc4n3)cn2)C1` [Example 129, 1-[(3R)-3-[4-({4-hydroxypyrido[3,4-d]pyrimidin-2-yl}oxy)-1H-pyrazol-1-yl]pyrrolidin-1-yl]ethan-1-one], the IC50 against Jarid1B and at JMJD2C was not above 0.1 µM each time.
Consider `Oc1nc(OCCC(F)(F)F)nc2cnccc12` [Example 13, 2-(3,3,3-trifluoropropoxy)pyrido[3,4-d]pyrimidin-4-ol], for which the IC50 on Jarid1B and against JMJD2C was 0.1 to 1 µM in each case.
For `N#CCC(=O)N1CC[C@@H](n2cc(Oc3nc(O)c4ccncc4n3)cn2)C1` [Example 130, 3-[(3R)-3-[4-({4-hydroxypyrido[3,4-d]pyrimidin-2-yl}oxy)-1H-pyrazol-1-yl]pyrrolidin-1-yl]-3-oxopropanenitrile], the IC50 at Jarid1B and against JMJD2C was not above 0.1 µM each time.
`CC(COc1nc(O)c2ccncc2n1)c1ccccc1` (stereo not shown) [Example 17, 2-(2-phenylpropoxy)pyrido[3,4-d]pyrimidin-4-ol]: the IC50 against Jarid1B and at JMJD2C was 0.1 to 1 µM each time.
For the molecule `O=C(C1CC1)N1CC[C@@H](n2cc(Oc3nc(O)c4ccncc4n3)cn2)C1` [Example 131, 2-({1-[(3R)-1-cyclopropanecarbonylpyrrolidin-3-yl]-1H-pyrazol-4-yl}oxy)pyrido[3,4-d]pyrimidin-4-ol], the IC50 on Jarid1B and on JMJD2C was not above 0.1 µM in each case.
In the case of `Oc1nc(OCc2cccc(Cl)c2Cl)nc2cnccc12` [Example 173, 2-[(2,3-dichlorophenyl)methoxy]pyrido[3,4-d]pyrimidin-4-ol], the figures for the IC50 on Jarid1B and against JMJD2C were 1 to 10 µM and not above 0.1 µM, respectively.
With `O=C(c1ccccc1)N1CCC[C@H](n2cc(Oc3nc(O)c4ccncc4n3)cn2)C1` [Example 167, 2-({1-[(3S)-1-benzoylpiperidin-3-yl]-1H-pyrazol-4-yl}oxy)pyrido[3,4-d]pyrimidin-4-ol], the IC50 against Jarid1B and at JMJD2C was not above 0.1 µM each time.
In the case of `Oc1nc(Oc2cnn([C@H]3CCNC3)c2)nc2cnccc12` [Example 135, 2-({1-[(3S)-pyrrolidin-3-yl]-1H-pyrazol-4-yl}oxy)pyrido[3,4-d]pyrimidin-4-ol], the IC50 at Jarid1B and at JMJD2C was not above 0.1 µM throughout.
Turning to `O=C(c1ccccc1)N1CC[C@@H](n2cc(Oc3nc(O)c4ccncc4n3)cn2)C1` [Example 132, 2-({1-[(3R)-1-benzoylpyrrolidin-3-yl]-1H-pyrazol-4-yl}oxy)pyrido[3,4-d]pyrimidin-4-ol], the IC50 at Jarid1B and on JMJD2C was not above 0.1 µM in each case.
As for `CC(C)COc1nc(O)c2ccncc2n1` [Example 14, 2-(2-methylpropoxy)pyrido[3,4-d]pyrimidin-4-ol], the IC50 on Jarid1B and on JMJD2C was 0.1 to 1 µM each time.
As for `CN(C)CCCOc1nc(O)c2ccncc2n1` [Example 21, 2-[3-(dimethylamino)propoxy]pyrido[3,4-d]pyrimidin-4-ol], the values for the IC50 on Jarid1B and on JMJD2C were 1 to 10 µM and 0.1 to 1 µM, respectively.
Consider `O=C(C1CCNCC1)N1CC[C@H](n2cc(Oc3nc(O)c4ccncc4n3)cn2)C1` [Example 143, 2-({1-[(3S)-1-(piperidine-4-carbonyl)pyrrolidin-3-yl]-1H-pyrazol-4-yl}oxy)pyrido[3,4-d]pyrimidin-4-ol], for which the IC50 against Jarid1B and against JMJD2C was not above 0.1 µM in each case.
For the molecule `Oc1nc(Oc2cnn([C@H]3CCN(c4ccccc4)C3)c2)nc2cnccc12` [Example 145, 2-({1-[(3S)-1-phenylpyrrolidin-3-yl]-1H-pyrazol-4-yl}oxy)pyrido[3,4-d]pyrimidin-4-ol], the IC50 at Jarid1B and on JMJD2C was not above 0.1 µM in each case.
For the molecule `Oc1nc(Oc2cnn([C@H]3CCN(c4ccc(F)cc4)C3)c2)nc2cnccc12` [Example 146, 2-({1-[(3S)-1-(4-fluorophenyl)pyrrolidin-3-yl]-1H-pyrazol-4-yl}oxy)pyrido[3,4-d]pyrimidin-4-ol], the IC50 against Jarid1B and on JMJD2C was not above 0.1 µM in each case.
`Oc1nc(OCCc2ccc(Cl)cc2)nc2cnccc12` [Example 174, 2-[2-(4-chlorophenyl)ethoxy]pyrido[3,4-d]pyrimidin-4-ol]: the IC50 is not above 0.1 µM against Jarid1B and 0.1 to 1 µM against JMJD2C.
`CCC(C)COc1nc(O)c2ccncc2n1` (stereo not shown) [Example 16, 2-(2-methylbutoxy)pyrido[3,4-d]pyrimidin-4-ol]: the IC50 against Jarid1B and at JMJD2C was 0.1 to 1 µM each time.
With `CCC(Oc1nc(O)c2ccnc(-c3cn(C)cn3)c2n1)C(F)(F)F` (stereo not shown) [Example 110, 8-(1-methyl-1H-imidazol-4-yl)-2-[(1,1,1-trifluorobutan-2-yl)oxy]pyrido[3,4-d]pyrimidin-4-ol], the values for the IC50 against Jarid1B and against JMJD2C were 0.1 to 1 µM and 1 to 10 µM, respectively.
Turning to `Oc1nc(Oc2cnn(CCN3CCOCC3)c2)nc2cnccc12` [Example 124, 2-({1-[2-(morpholin-4-yl)ethyl]-1H-pyrazol-4-yl}oxy)pyrido[3,4-d]pyrimidin-4-ol], the IC50 against Jarid1B and on JMJD2C was not above 0.1 µM in each case.
As to `Oc1nc(OCc2c(Cl)cccc2Cl)nc2cnccc12` [Example 172, 2-[(2,6-dichlorophenyl)methoxy]pyrido[3,4-d]pyrimidin-4-ol], the IC50 at Jarid1B and against JMJD2C was 1 to 10 µM throughout.
`Oc1nc(Oc2ccc(Cl)c(Cl)c2)nc2cnccc12` [Example 114, 2-(3,4-dichlorophenoxy)pyrido[3,4-d]pyrimidin-4-ol]: the IC50 on Jarid1B and against JMJD2C was not above 0.1 µM in each case.
Turning to `CCS(=O)(=O)N1CCC[C@@H](n2cc(Oc3nc(O)c4ccncc4n3)cn2)C1` [Example 150, 2-({1-[(3R)-1-(ethanesulfonyl)piperidin-3-yl]-1H-pyrazol-4-yl}oxy)pyrido[3,4-d]pyrimidin-4-ol], the IC50 at Jarid1B and against JMJD2C was not above 0.1 µM each time.
Take `Oc1nc(Oc2cnn([C@H]3CCN(c4ccc(Cl)cc4)C3)c2)nc2cnccc12` [Example 148, 2-({1-[(3S)-1-(4-chlorophenyl)pyrrolidin-3-yl]-1H-pyrazol-4-yl}oxy)pyrido[3,4-d]pyrimidin-4-ol]: the IC50 at Jarid1B and against JMJD2C was not above 0.1 µM each time.
Take `O=S(=O)(c1ccccc1)N1CCC[C@H](n2cc(Oc3nc(O)c4ccncc4n3)cn2)C1` [Example 163, 2-({1-[(3S)-1-(benzenesulfonyl)piperidin-3-yl]-1H-pyrazol-4-yl}oxy)pyrido[3,4-d]pyrimidin-4-ol]: the IC50 at Jarid1B and against JMJD2C was not above 0.1 µM each time.
Regarding `O=S(=O)(C1CC1)N1CCC[C@H](n2cc(Oc3nc(O)c4ccncc4n3)cn2)C1` [Example 162, 2-({1-[(3S)-1-(cyclopropanesulfonyl)piperidin-3-yl]-1H-pyrazol-4-yl}oxy)pyrido[3,4-d]pyrimidin-4-ol], the IC50 against Jarid1B and against JMJD2C was not above 0.1 µM in each case.
